Experimental data as given in paper PMC12057336 (Antimicrobial Agents and Chemotherapy, 2025).
Like-named read-outs stand apart in the source and are kept apart here.

Assays:
[1] = tested on: OCT3; conditions: cited from earlier work
[2] = tested on: OATP1B3; conditions: cited from earlier work
[3] = Tissue distribution after i.g. or i.v. linezolid in control, CCl4-induced and 5/6 Nx rats; format: in vivo, rat; conditions: for Kp at 0.5 h / Kp at 1 h / Kp at 4 h: rat
Description: These two groups were further divided into the following three subgroups (n = 4): control rats, CCl4-induced rats, and 5/6 Nx rats. […] The rats were euthanized immediately after blood sampling. The brain, heart, lungs, liver, kidneys, and small intestine were collected. The collected tissues were washed and homogenized in normal saline (three-fold volume of each sample weight) using a multi-sample tissue grinder (Tissuelyser-48L; Shanghai Jingxin Industrial Development Co. Ltd., Shanghai, China). After centrifugation of the homogenate samples at 12,000 × g for 10 min at 4°C, the supernatants were stored at −80°C.
The flow rate was 1.0 mL/min.
Then, 5 µL of the supernatant was analyzed.

[4] = tested on: MAT1; parameters: method as in PMID 27645247, PMID 26976869, PMID 27550354; conditions: cited from earlier work
[5] = brain, iv, 25 mg/kg, i.v. 25 mg/kg linezolid, 5/6 Nx rats, read-out: Tissue/plasma concentration ratio, Brain
[6] = brain, iv, 25 mg/kg, i.v. 25 mg/kg linezolid, CCl4-induced rats, read-out: Tissue/plasma concentration ratio, Brain
[7] = brain, iv, 25 mg/kg, i.v. 25 mg/kg linezolid, control rats, read-out: Tissue/plasma concentration ratio, Brain
[8] = brain, oral, 63 mg/kg, i.g. 63 mg/kg linezolid, 5/6 Nx rats, read-out: Tissue/plasma concentration ratio, Brain
[9] = brain, oral, 63 mg/kg, i.g. 63 mg/kg linezolid, CCl4-induced rats, read-out: Tissue/plasma concentration ratio, Brain
[10] = brain, oral, 63 mg/kg, i.g. 63 mg/kg linezolid, control rats, read-out: Tissue/plasma concentration ratio, Brain
[11] = heart, iv, 25 mg/kg, i.v. 25 mg/kg linezolid, 5/6 Nx rats, read-out: Tissue/plasma concentration ratio, Heart
[12] = heart, iv, 25 mg/kg, i.v. 25 mg/kg linezolid, CCl4-induced rats, read-out: Tissue/plasma concentration ratio, Heart
[13] = heart, iv, 25 mg/kg, i.v. 25 mg/kg linezolid, control rats, read-out: Tissue/plasma concentration ratio, Heart
[14] = heart, oral, 63 mg/kg, i.g. 63 mg/kg linezolid, CCl4-induced rats, read-out: Tissue/plasma concentration ratio, Heart
[15] = heart, oral, 63 mg/kg, i.g. 63 mg/kg linezolid, control rats, read-out: Tissue/plasma concentration ratio, Heart
[16] = heart, oral, 63 mg/kg, i.g. 63 mg/kg linezolid, 5/6 Nx rats, read-out: Tissue/plasma concentration ratio, Heart
[17] = kidney, iv, 25 mg/kg, i.v. 25 mg/kg linezolid, 5/6 Nx rats, read-out: Tissue/plasma concentration ratio, Kidney
[18] = kidney, iv, 25 mg/kg, i.v. 25 mg/kg linezolid, control rats, read-out: Tissue/plasma concentration ratio, Kidney
[19] = kidney, oral, 63 mg/kg, i.g. 63 mg/kg linezolid, CCl4-induced rats, read-out: Tissue/plasma concentration ratio, Kidney
[20] = kidney, oral, 63 mg/kg, i.g. 63 mg/kg linezolid, 5/6 Nx rats, read-out: Tissue/plasma concentration ratio, Kidney
[21] = kidney, oral, 63 mg/kg, i.g. 63 mg/kg linezolid, control rats, read-out: Tissue/plasma concentration ratio, Kidney
[22] = liver (homogenate) relative to plasma, iv, 25 mg/kg, i.v. 25 mg/kg linezolid, 5/6 Nx rats, read-out: Tissue/plasma concentration ratio, Liver
[23] = liver (homogenate) relative to plasma, iv, 25 mg/kg, i.v. 25 mg/kg linezolid, control rats, read-out: Tissue/plasma concentration ratio, Liver
[24] = liver, oral, 63 mg/kg, i.g. 63 mg/kg linezolid, 5/6 Nx rats, read-out: Tissue/plasma concentration ratio, Liver
[25] = liver, oral, 63 mg/kg, i.g. 63 mg/kg linezolid, CCl4-induced rats, read-out: Tissue/plasma concentration ratio, Liver
[26] = liver, oral, 63 mg/kg, i.g. 63 mg/kg linezolid, control rats, read-out: Tissue/plasma concentration ratio, Liver
[27] = lung, iv, 25 mg/kg, i.v. 25 mg/kg linezolid, 5/6 Nx rats, read-out: Tissue/plasma concentration ratio, Lung
[28] = lung, iv, 25 mg/kg, i.v. 25 mg/kg linezolid, CCl4-induced rats, read-out: Tissue/plasma concentration ratio, Lung
[29] = lung, iv, 25 mg/kg, i.v. 25 mg/kg linezolid, control rats, read-out: Tissue/plasma concentration ratio, Lung
[30] = lung, oral, 63 mg/kg, i.g. 63 mg/kg linezolid, 5/6 Nx rats, read-out: Tissue/plasma concentration ratio, Lung
[31] = lung, oral, 63 mg/kg, i.g. 63 mg/kg linezolid, CCl4-induced rats, read-out: Tissue/plasma concentration ratio, Lung
[32] = lung, oral, 63 mg/kg, i.g. 63 mg/kg linezolid, control rats, read-out: Tissue/plasma concentration ratio, Lung
[33] = small intestine, iv, 25 mg/kg, i.v. 25 mg/kg linezolid, 5/6 Nx rats, read-out: Tissue/plasma concentration ratio, Small intestine
[34] = small intestine, iv, 25 mg/kg, i.v. 25 mg/kg linezolid, CCl4-induced rats, read-out: Tissue/plasma concentration ratio, Small intestine
[35] = small intestine, iv, 25 mg/kg, i.v. 25 mg/kg linezolid, control rats, read-out: Tissue/plasma concentration ratio, Small intestine
[36] = small intestine, oral, 63 mg/kg, i.g. 63 mg/kg linezolid, 5/6 Nx rats, read-out: Tissue/plasma concentration ratio, Small intestine
[37] = small intestine, oral, 63 mg/kg, i.g. 63 mg/kg linezolid, CCl4-induced rats, read-out: Tissue/plasma concentration ratio, Small intestine
[38] = small intestine, oral, 63 mg/kg, i.g. 63 mg/kg linezolid, control rats, read-out: Tissue/plasma concentration ratio, Small intestine

## CC(=O)NC[C@H]1CN(c2ccc(N3CCOCC3)c(F)c2)C(=O)O1 [Linezolid]
[1]
  substrate for OCT3: not a substrate
[2]
  inhibitor of OATP1B3: inhibitor
[3]; [5]
  Kp at 0.5 h: 0.12 ± 0.04
  Kp at 1 h: 0.15 ± 0.01
  Kp at 4 h: 0.13 ± 0.04
[3]; [6]
  Kp at 0.5 h: 0.16 ± 0.12
  Kp at 1 h: 0.12 ± 0.03
  Kp at 4 h: 0.08 ± 0.01
[3]; [7]
  Kp at 0.5 h: 0.11 ± 0.02
  Kp at 1 h: 0.12 ± 0.02
[3]; [8]
  Kp at 0.5 h: 0.17 ± 0.06
  Kp at 1 h: 0.16 ± 0.03
  Kp at 4 h: 0.18 ± 0.06
[3]; [9]
  Kp at 0.5 h: 0.1 ± 0.01
  Kp at 1 h: 0.09 ± 0.02
  Kp at 4 h: 0.07 ± 0.04
[3]; [10]
  Kp at 0.5 h: 0.15 ± 0.02
  Kp at 1 h: 0.03 ± 0.002
  Kp at 4 h: 0.06 ± 0.03
[3]; [11]
  Kp at 0.5 h: 0.85 ± 0.04
  Kp at 1 h: 0.91 ± 0.04
  Kp at 4 h: 0.75 ± 0.13
[3]; [12]
  Kp at 0.5 h: 0.63 ± 0.05
  Kp at 1 h: 0.67 ± 0.05
  Kp at 4 h: 0.67 ± 0.09
[3]; [13]
  Kp at 0.5 h: 0.5 ± 0.09
  Kp at 1 h: 0.4 ± 0.07
  Kp at 4 h: 0.13 ± 0.1
[3]; [14]
  Kp at 0.5 h: 0.64 ± 0.14
  Kp at 1 h: 0.54 ± 0.18
  Kp at 4 h: 0.61 ± 0.03
[3]; [15]
  Kp at 0.5 h: 0.68 ± 0.06
  Kp at 1 h: 0.24 ± 0.06
  Kp at 4 h: 0.47 ± 0.15
[3]; [16]
  Kp at 1 h: 0.88 ± 0.12
  Kp at 4 h: 0.96 ± 0.47
[3]; kidney (homogenate) relative to plasma, iv, 25 mg/kg, i.v. 25 mg/kg linezolid, 5/6 Nx rats, read-out: Tissue/plasma concentration ratio, Kidney
  Kp at 4 h: 1 ± 0.23
[3]; [17]
  Kp at 0.5 h: 0.97 ± 0.12
  Kp at 1 h: 0.92 ± 0.18
[3]; kidney, iv, 25 mg/kg, i.v. 25 mg/kg linezolid, CCl4-induced rats, read-out: Tissue/plasma concentration ratio, Kidney
  Kp at 0.5 h: 1.28 ± 0.56
[3]; [18]
  Kp at 0.5 h: 0.64 ± 0.36
  Kp at 1 h: 0.62 ± 0.52
  Kp at 4 h: 0.84 ± 0.14
[3]; [19]
  Kp at 0.5 h: 0.85 ± 0.16
  Kp at 1 h: 1.18 ± 0.22
  Kp at 4 h: 1.11 ± 0.17
[3]; [20]
  Kp at 1 h: 0.94 ± 0.18
  Kp at 4 h: 0.97 ± 0.25
[3]; [21]
  Kp at 1 h: 0.42 ± 0.06
  Kp at 4 h: 0.75 ± 0.15
[3]; [22]
  Kp at 0.5 h: 1.24 ± 0.21
  Kp at 1 h: 1.11 ± 0.34
[3]; liver (homogenate) relative to plasma, iv, 25 mg/kg, i.v. 25 mg/kg linezolid, CCl4-induced rats, read-out: Tissue/plasma concentration ratio, Liver
  Kp at 0.5 h: 1.32 ± 0.36
[3]; [23]
  Kp at 0.5 h: 1.22 ± 0.46
  Kp at 1 h: 0.6 ± 0.38
[3]; liver, iv, 25 mg/kg, i.v. 25 mg/kg linezolid, 5/6 Nx rats, read-out: Tissue/plasma concentration ratio, Liver
  Kp at 4 h: 1.39 ± 0.4
[3]; liver, iv, 25 mg/kg, i.v. 25 mg/kg linezolid, CCl4-induced rats, read-out: Tissue/plasma concentration ratio, Liver
  Kp at 4 h: 1.19 ± 0.85
[3]; liver, iv, 25 mg/kg, i.v. 25 mg/kg linezolid, control rats, read-out: Tissue/plasma concentration ratio, Liver
  Kp at 4 h: 1.3 ± 0.36
[3]; [24]
  Kp at 0.5 h: 1.25 ± 0.6
  Kp at 1 h: 1.37 ± 0.41
  Kp at 4 h: 1 ± 0.11
[3]; [25]
  Kp at 0.5 h: 1.06 ± 0.44
  Kp at 1 h: 1.19 ± 0.18
  Kp at 4 h: 0.93 ± 0.31
[3]; [26]
  Kp at 0.5 h: 1.64 ± 0.75
  Kp at 1 h: 0.78 ± 0.14
  Kp at 4 h: 1.06 ± 0.16
[3]; [27]
  Kp at 0.5 h: 0.87 ± 0.03
  Kp at 1 h: 0.91 ± 0.08
  Kp at 4 h: 0.74 ± 0.2
[3]; [28]
  Kp at 0.5 h: 0.55 ± 0.34
  Kp at 1 h: 0.66 ± 0.08
  Kp at 4 h: 0.85 ± 0.14
[3]; [29]
  Kp at 0.5 h: 0.42 ± 0.25
  Kp at 1 h: 0.25 ± 0.18
  Kp at 4 h: 0.45 ± 0.46
[3]; [30]
  Kp at 0.5 h: 0.86 ± 0.38
  Kp at 1 h: 0.94 ± 0.18
  Kp at 4 h: 0.82 ± 0.09
[3]; [31]
  Kp at 0.5 h: 0.68 ± 0.16
  Kp at 1 h: 0.66 ± 0.05
  Kp at 4 h: 0.6 ± 0.04
[3]; [32]
  Kp at 0.5 h: 0.67 ± 0.13
  Kp at 1 h: 0.07 ± 0.03
  Kp at 4 h: 0.46 ± 0.15
[3]; [33]
  Kp at 0.5 h: 1.19 ± 0.31
  Kp at 1 h: 0.77 ± 0.34
  Kp at 4 h: 0.73 ± 0.07
[3]; [34]
  Kp at 0.5 h: 0.66 ± 0.05
  Kp at 1 h: 0.69 ± 0.05
  Kp at 4 h: 0.71 ± 0.09
[3]; [35]
  Kp at 0.5 h: 0.42 ± 0.21
  Kp at 1 h: 0.21 ± 0.01
  Kp at 4 h: 0.47 ± 0.42
[3]; [36]
  Kp at 0.5 h: 2.48 ± 0.76
  Kp at 1 h: 1.28 ± 0.29
  Kp at 4 h: 0.9 ± 0.31
[3]; [37]
  Kp at 0.5 h: 0.93 ± 0.26
  Kp at 1 h: 0.9 ± 0.09
  Kp at 4 h: 1.11 ± 0.07
[3]; [38]
  Kp at 0.5 h: 0.35 ± 0.21
  Kp at 1 h: 0.33 ± 0.22
  Kp at 4 h: 0.6 ± 0.18
[3]; within 4 hours after i.g. and i.v. administration, hepatic impairment or renal failure rats
  accumulation in brain, heart, lung, liver, kidney, or small intestinal tissues: did not accumulate
[4]
  inhibitor of MAT1: not an inhibitor
